Results published in patent publication US20220296595A1, “CDK INHIBITORS” (QILU REGOR THERAPEUTICS INC., priority 2019, published 2022).
pIC50: −log10 of the molar value.

target: T1, CDK4/CyclinD1 (Homo sapiens, UniProt P11802); experiment: Assay for inhibition of CDK4/CyclinD1 (Caliper microfluidic kinase assay); assay type: biochemical; details: CDK4/CyclinD1
T1 construct: purchased Thermofisher PR8064A
Method in brief: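 Caliper microfluidic mobility-shift assay tracking phosphorylation of 1 μM FL-34 peptide by 1 nM CDK4/CyclinD1 with 200 μM ATP in HEPES pH 7.5 buffer with 10 mM MgCl2. Reaction ran 3 h at room temperature, was stopped with EDTA, and IC50 came from a 4-parameter sigmoidal fit.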

T1 sequence (P11802 whole entry): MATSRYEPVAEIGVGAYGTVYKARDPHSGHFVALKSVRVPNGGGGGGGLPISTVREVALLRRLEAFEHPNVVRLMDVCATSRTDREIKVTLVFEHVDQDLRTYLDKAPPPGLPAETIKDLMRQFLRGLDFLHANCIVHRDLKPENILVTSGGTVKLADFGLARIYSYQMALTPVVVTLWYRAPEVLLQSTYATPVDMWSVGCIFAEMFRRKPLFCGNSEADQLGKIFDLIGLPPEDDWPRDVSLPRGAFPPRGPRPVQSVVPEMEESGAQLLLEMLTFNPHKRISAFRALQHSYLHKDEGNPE
T1 sequence (P24385 whole entry partner): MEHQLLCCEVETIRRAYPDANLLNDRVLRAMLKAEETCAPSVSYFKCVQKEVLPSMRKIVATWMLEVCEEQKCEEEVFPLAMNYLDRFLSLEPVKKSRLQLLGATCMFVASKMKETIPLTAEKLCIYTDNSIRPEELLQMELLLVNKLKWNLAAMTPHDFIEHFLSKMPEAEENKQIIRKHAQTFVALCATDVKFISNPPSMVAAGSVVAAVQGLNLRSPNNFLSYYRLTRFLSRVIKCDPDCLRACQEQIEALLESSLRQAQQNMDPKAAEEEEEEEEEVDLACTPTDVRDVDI

Row | SMILES | pIC50
1 | COc1nc(-c2ccnc(Nc3ccc(N4CCC(N5CCC5)CC4=O)cn3)n2)cc2c1ncn2C(C)C (centres unmarked) [compound 314] | > 8.00
2 | CCN1CC2CC1CN2c1ccc(Nc2nccc(-c3cc4c(ncn4C(C)C)c(OC)n3)n2)nc1 (centres unmarked) [compound 312] | > 8.00
3 | COc1nc(-c2nc(Nc3ccc(N4CCN(C)CC4)cn3)ncc2F)cc2c1nc(C)n2C(C)C [compound 103] | 7.00 to 8.00
4 | COc1nc(-c2ccnc(Nc3ccc(C(=O)N4CCC(NC5CC5)C4)cc3)n2)cc2c1ncn2C(C)C (centres unmarked) [compound 80] | > 8.00

same assay, conditions: CDK4/CyclinD1, 200 μM ATP

Row | SMILES | pIC50
5 | COc1nc(-c2nc(Nc3ccc(N4CCN(S(C)(=O)=O)CC4=O)cn3)ncc2F)cc2c1nc(C)n2C(C)C [Synthetic Example 127] | > 8.00
6 | COc1nc(-c2nc(Nc3ccc(N4CCN(C5COC5)CC4=O)cn3)ncc2F)cc2c1nc(C)n2C(C)C [compound 131] | > 8.00
7 | CC(C)c1cnn2ccc(-c3nc(Nc4ccc(N5CCN(S(C)(=O)=O)CC5=O)cn4)ncc3F)cc12 [compound 51] | > 8.00

target: T2, CDK6/CyclinD3 (Homo sapiens, UniProt Q00534); experiment: Assay for inhibition of CDK6/CyclinD3 (Caliper microfluidic kinase assay); assay type: biochemical; details: CDK6/CyclinD3
T2 construct: purchased Carna 04-107
T2 sequence (Q00534 whole entry): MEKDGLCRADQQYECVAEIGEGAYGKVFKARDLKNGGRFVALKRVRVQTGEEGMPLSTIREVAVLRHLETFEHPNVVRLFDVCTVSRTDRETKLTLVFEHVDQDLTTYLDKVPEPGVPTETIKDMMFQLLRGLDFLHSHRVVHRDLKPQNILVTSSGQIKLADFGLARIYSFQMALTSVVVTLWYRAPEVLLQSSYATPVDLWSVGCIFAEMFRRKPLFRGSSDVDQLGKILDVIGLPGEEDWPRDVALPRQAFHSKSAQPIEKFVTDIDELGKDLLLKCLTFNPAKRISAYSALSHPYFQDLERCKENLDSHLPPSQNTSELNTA
T2 sequence (P30281 whole entry partner): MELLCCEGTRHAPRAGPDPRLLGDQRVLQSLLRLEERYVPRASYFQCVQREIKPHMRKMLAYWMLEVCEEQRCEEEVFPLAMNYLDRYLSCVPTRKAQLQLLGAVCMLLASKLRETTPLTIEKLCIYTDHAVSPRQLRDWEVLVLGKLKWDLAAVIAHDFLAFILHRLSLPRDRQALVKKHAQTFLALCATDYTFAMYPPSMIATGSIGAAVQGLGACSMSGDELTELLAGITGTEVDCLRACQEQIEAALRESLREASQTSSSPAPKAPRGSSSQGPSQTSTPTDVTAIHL
Method in brief: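 Caliper mobility-shift readout of FAM-labelled peptide (FL-34, 1 μM) phosphorylation by 2 nM CDK6/CyclinD3 at 300 μM ATP in HEPES pH 7.5 buffer with MgCl2, DTT; 3 h at room temperature, EDTA stop. IC50 from 4-parameter sigmoidal fit.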

Row | SMILES | pIC50
8 | COc1nc(-c2ccnc(Nc3ccc(N4CCC(N5CCC5)CC4=O)cn3)n2)cc2c1ncn2C(C)C (centres unmarked) [compound 314] | 7.00 to 8.00
9 | CCN1CC2CC1CN2c1ccc(Nc2nccc(-c3cc4c(ncn4C(C)C)c(OC)n3)n2)nc1 (centres unmarked) [compound 312] | 7.00 to 8.00
10 | COc1nc(-c2nc(Nc3ccc(N4CCN(C)CC4)cn3)ncc2F)cc2c1nc(C)n2C(C)C [compound 103] | 7.00 to 8.00
11 | COc1nc(-c2ccnc(Nc3ccc(C(=O)N4CCC(NC5CC5)C4)cc3)n2)cc2c1ncn2C(C)C (centres unmarked) [compound 80] | 7.00 to 8.00

same assay, conditions: CDK6/CyclinD3, 300 μM ATP

Row | SMILES | pIC50
12 | COc1nc(-c2nc(Nc3ccc(N4CCN(S(C)(=O)=O)CC4=O)cn3)ncc2F)cc2c1nc(C)n2C(C)C [Synthetic Example 127] | 7.00 to 8.00
13 | COc1nc(-c2nc(Nc3ccc(N4CCN(C5COC5)CC4=O)cn3)ncc2F)cc2c1nc(C)n2C(C)C [compound 131] | 7.00 to 8.00
14 | CC(C)c1cnn2ccc(-c3nc(Nc4ccc(N5CCN(S(C)(=O)=O)CC5=O)cn4)ncc3F)cc12 [compound 51] | 7.00 to 8.00

target: T3, CDK2/CyclinE1 (Homo sapiens, UniProt P24941); experiment: Assay for inhibition of CDK2/CyclinE1 (Caliper microfluidic kinase assay); assay type: biochemical; details: CDK2/CyclinE1, 100 μM ATP; read-out: CDK2 IC50
T3 construct: purchased SignalChem C29-18G
Method in brief: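 Caliper microfluidic mobility-shift assay: 5 nM CDK2/CyclinE1, 100 μM ATP, 5 μM FL-18 peptide (5-FAM-QSPKKG-NH2) in pH 7.5 HEPES buffer with MgCl2, DTT, BSA, Triton X-100. Incubated 3 hours at room temperature, EDTA-stopped; IC50 from 4-parameter sigmoidal fit.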

Row | SMILES | pIC50
15 | COc1nc(-c2nc(Nc3ccc(N4CCN(S(C)(=O)=O)CC4=O)cn3)ncc2F)cc2c1nc(C)n2C(C)C [Synthetic Example 127] | 6.00 to 7.00
16 | COc1nc(-c2nc(Nc3ccc(N4CCN(C5COC5)CC4=O)cn3)ncc2F)cc2c1nc(C)n2C(C)C [compound 131] | < 6.00
17 | CC(C)c1cnn2ccc(-c3nc(Nc4ccc(N5CCN(S(C)(=O)=O)CC5=O)cn4)ncc3F)cc12 [compound 51] | 7.00 to 8.00

same assay, conditions: CDK2/CyclinE1; read-out: CDK2 IC50

Row | SMILES | pIC50
18 | COc1nc(-c2ccnc(Nc3ccc(N4CCC(N5CCC5)CC4=O)cn3)n2)cc2c1ncn2C(C)C (centres unmarked) [compound 314] | 7.00 to 8.00
19 | CCN1CC2CC1CN2c1ccc(Nc2nccc(-c3cc4c(ncn4C(C)C)c(OC)n3)n2)nc1 (centres unmarked) [compound 312] | < 6.00
20 | COc1nc(-c2nc(Nc3ccc(N4CCN(C)CC4)cn3)ncc2F)cc2c1nc(C)n2C(C)C [compound 103] | < 6.00
21 | COc1nc(-c2ccnc(Nc3ccc(C(=O)N4CCC(NC5CC5)C4)cc3)n2)cc2c1ncn2C(C)C (centres unmarked) [compound 80] | > 8.00

test system: T47D breast cancer cells; experiment: Anti-proliferation assay in T47D cell (Cyquant, day 6); assay type: cell-based, human; details: Homo sapiens, T47D, anti-proliferation, T47D cells; read-out: T47D IC50
Method in brief: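 Cells were grown in RPMI 1640 with 10% FBS at 37 °C and dosed the day after plating at ten concentrations, 10 μM to 0.51 nM in 3-fold steps. CyQuant fluorescence (ex 485/em 535 nm) was read on day 6. IC50 was fitted from baseline-subtracted viability curves, with the baseline read after overnight culture.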

Row | SMILES | pIC50
22 | COc1nc(-c2nc(Nc3ccc(N4CCN(S(C)(=O)=O)CC4=O)cn3)ncc2F)cc2c1nc(C)n2C(C)C [Synthetic Example 127] | 6.30 to 7.00
23 | COc1nc(-c2nc(Nc3ccc(N4CCN(C5COC5)CC4=O)cn3)ncc2F)cc2c1nc(C)n2C(C)C [compound 131] | 6.30 to 7.00
24 | CC(C)c1cnn2ccc(-c3nc(Nc4ccc(N5CCN(S(C)(=O)=O)CC5=O)cn4)ncc3F)cc12 [compound 51] | > 7.00
25 | COc1nc(-c2ccnc(Nc3ccc(N4CCC(N5CCC5)CC4=O)cn3)n2)cc2c1ncn2C(C)C (centres unmarked) [compound 314] | > 7.00
26 | CCN1CC2CC1CN2c1ccc(Nc2nccc(-c3cc4c(ncn4C(C)C)c(OC)n3)n2)nc1 (centres unmarked) [compound 312] | 6.30 to 7.00
27 | COc1nc(-c2nc(Nc3ccc(N4CCN(C)CC4)cn3)ncc2F)cc2c1nc(C)n2C(C)C [compound 103] | 6.30 to 7.00
28 | COc1nc(-c2ccnc(Nc3ccc(C(=O)N4CCC(NC5CC5)C4)cc3)n2)cc2c1ncn2C(C)C (centres unmarked) [compound 80] | 6.30 to 7.00

test system: phosphorylation of Retinoblastoma Protein (pRb Ser807/811 or Ser780) in T47D cells; experiment: Inhibition of phosphorylation of retinoblastoma protein (pRb) in T47D cell (ELISA); assay type: cell-based, human; details: Homo sapiens, T47D, read-out: Phospho T47D Ser807 IC50, pRb Ser807 phosphorylation, T47D cells
Method in brief: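 T47D cells in RPMI 1640 + 10% FBS, adhered overnight, then treated 24 h with 3-fold compound titrations (top concentration […]). Lysates assayed by sandwich ELISA for pRb Ser807/811 or Ser780 with HRP/TMB detection. IC50 from 4-parameter sigmoidal fit.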

Row | SMILES | pIC50
29 | COc1nc(-c2nc(Nc3ccc(N4CCN(S(C)(=O)=O)CC4=O)cn3)ncc2F)cc2c1nc(C)n2C(C)C [Synthetic Example 127] | 6.30 to 7.00
30 | COc1nc(-c2nc(Nc3ccc(N4CCN(C5COC5)CC4=O)cn3)ncc2F)cc2c1nc(C)n2C(C)C [compound 131] | 6.30 to 7.00
31 | CC(C)c1cnn2ccc(-c3nc(Nc4ccc(N5CCN(S(C)(=O)=O)CC5=O)cn4)ncc3F)cc12 [compound 51] | > 7.00
32 | COc1nc(-c2ccnc(Nc3ccc(N4CCC(N5CCC5)CC4=O)cn3)n2)cc2c1ncn2C(C)C (centres unmarked) [compound 314] | > 7.00
33 | CCN1CC2CC1CN2c1ccc(Nc2nccc(-c3cc4c(ncn4C(C)C)c(OC)n3)n2)nc1 (centres unmarked) [compound 312] | > 7.00
34 | COc1nc(-c2nc(Nc3ccc(N4CCN(C)CC4)cn3)ncc2F)cc2c1nc(C)n2C(C)C [compound 103] | > 7.00
35 | COc1nc(-c2ccnc(Nc3ccc(C(=O)N4CCC(NC5CC5)C4)cc3)n2)cc2c1ncn2C(C)C (centres unmarked) [compound 80] | > 7.00
